Reference: patent publication US6825181B1, “Aminoisoquinoline derivatives” (Ajinomoto Co., Inc., priority 1998, dated 2004)

Assays:
Assay type in all cases: biochemical
[1] = molecular target: T1, activated human blood coagulation factor X (Homo sapiens, UniProt P00742); assay: Determination of activity of inhibiting the activated blood-coagulation factor X; conditions: negative logarithm of concentration inhibiting 50% of initial rate; pH 8.4, room temperature; read-out: Activity of inhibiting activated blood coagulation factor X (pIC50) (converted)
T1 construct: purchased Enzyme Research Co
Protocol: Determination of Activity of Inhibiting the Activated Blood-Coagulation Factor X
130 μl of 100 mM tris hydrochloride buffer adjusted to pH 8.4 was added to 10 μl of an aqueous solution of a compound to be tested. Then 10 μl of a 0.5 unit/ml solution of activated human blood coagulation factor X (a product of Enzyme Research Co.) in tris hydrochloride of pH 8.4 was added to the resultant mixture. After the incubation at room temperature for 10 minutes, 50 μl of a solution of N-benzoyl-L-isoleucyl-L-glutamyl-glycyl-L-arginyl-P-nitroanilide hydrochloride (a product of Peptide Institute, Inc.) adjusted to 0.8 mM with tris hydrochloride (pH 8.4) was added thereto. The absorbance was determined and then the initial reaction rate was determined. A control was prepared in the same manner as that described above except that the solution of the compound to be tested was replaced with 10 μl of tris hydrochloride buffer adjusted to pH 8.4. The absorbance was determined with MICROPLATE READER Model 3550-UV (a product of BIO RAD) at a wave length of 405 nm at intervals of 15 seconds for 16 minutes.

human thrombin = molecular target: T2, human thrombin (Homo sapiens, UniProt P00734); assay: Determination of thrombin-inhibiting activity; conditions: negative logarithm of concentration inhibiting 50% of initial rate; substrate S-2238, pH 8.4; read-out: Thrombin-inhibiting activity (pIC50) (converted)
T2 construct: solution of human thrombin (a product of SIGMA Co.); purchased SIGMA Co
Protocol: Determination of Thrombin-Inhibiting Activity:
130 μl of 100 mM tris hydrochloride buffer adjusted to pH 8.4 was added to 10 μl of an aqueous solution of a test compound. Then 10 μl of a solution of human thrombin (a product of SIGMA Co.) adjusted to 2 units/ml with tris hydrochloride buffer of pH 8.4 was added to the resultant mixture. After the incubation at room temperature for 10 minutes, 50 μl of a solution of D-phenylalanyl-L-pipecolyl-L-arginyl-P-nitroanilide dihydrochloride (S-2238; a product of Daiichi Kagaku Yakuhin Co.) adjusted to 0.4 mM with tris hydrochloride buffer of pH 8.4 was added thereto. The absorbance was determined and then the initial reaction rate was determined. A control was prepared in the same manner as that described above except that the solution of the compound to be tested was replaced with 10 μl of tris hydrochloride buffer adjusted to pH 8.4. The absorbance was determined with MICROPLATE READER Model 3550-UV (a product of […]) at a wave length of 405 nm at intervals of 15 seconds for 16 minutes. The negative logarithm (pIC50) of a concentration of the test compound which inhibits 50% of the activity (initial rate) of the thrombin in the absence of the test compound was determined, and employed as the index of the activity of inhibiting thrombin.

[2] = test system: blood plasma from healthy people (prothrombin time); assay: Determination of blood anticoagulating activity by prothrombin time (PT) determination method; conditions: negative logarithm of concentration which elongated PT of the control to twice as long; human blood plasma
Protocol: Determination of Blood Anticoagulating Activity:
The blood anticoagulating activity was determined by a prothrombin time (PT) determination method. The PT was determined as follows: The blood was taken from healthy people. 3.8% aqueous trisodium citrate solution was added to the blood in a volume ratio of 1:10. The blood plasma was separated by the centrifugation. 5 μl of DMSO solution containing a test compound was added to 45 μl of the blood plasma. After the incubation at room temperature for 2 minutes, a test tube containing the blood plasma solution was placed in Sysmex CA-3000 fully automatic blood coagulation determination device (a product of To a Medical Electronics Co., Ltd.), and incubated at 37° C. for 3 minutes. 100 μl of Sysmex PT II (rabbit brain tissue thromboplastin, 13.2 mM calcium chloride; a product of To a Medical Electronics Co., Ltd.) was fed into the test tube. PT was automatically determined with the device. A sample containing […] of DMSO in place of the solution of the test compound was used as the control. The negative logarithm (PT2) of the concentration of the test compound which elongated PT of the control to the twice as long was determined, and employed as the index of the blood anticoagulating activity.

T1 sequence (P00742 235-488 limits assumed): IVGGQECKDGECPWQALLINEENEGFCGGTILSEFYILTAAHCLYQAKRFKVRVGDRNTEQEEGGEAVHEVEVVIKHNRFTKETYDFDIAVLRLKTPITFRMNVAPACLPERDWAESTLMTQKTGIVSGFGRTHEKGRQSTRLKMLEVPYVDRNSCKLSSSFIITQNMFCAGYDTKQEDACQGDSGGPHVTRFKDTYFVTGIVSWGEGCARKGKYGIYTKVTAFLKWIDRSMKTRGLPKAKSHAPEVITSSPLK
T1 sequence (P00742 41-179 partner limits assumed): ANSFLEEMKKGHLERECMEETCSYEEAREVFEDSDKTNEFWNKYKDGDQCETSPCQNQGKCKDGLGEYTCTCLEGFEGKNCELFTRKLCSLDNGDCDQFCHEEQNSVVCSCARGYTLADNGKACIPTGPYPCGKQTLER

Row | Compound | IC50 [1] [µM] | IC50 (human thrombin) [µM] | Blood anticoagulating activity (PT2) [2]
1 | Nc1nccc2ccc(OC[C@@H](CCC(=O)O)NC(=O)C3CCN(c4ccncc4)CC3)cc12 [Compound of Ex. 21, (4R)-5-(1-aminoisoquinoline-7-yloxy)-4-[(1-(4-pyridyl)-4-piperidine)carbamido]pentanoic acid bistrifluoroacetate] | 0.158 | 316 | –
2 | Nc1nccc2cc(CC(=O)C(=O)O)c(OCCNC(=O)c3ccc(C(=O)N4CCCC4)cc3)cc12 [Compound of Ex. 23, 3-[1-amino-(2-(4-(1-pyrrolidinecarbonyl)benzoylamino)ethoxy)isoquinoline-6-yl]-2-oxopropionic acid mono-trifluoroacetate] | 0.0251 | 15.8 | –
3 | CC(=N)N1CCC(Oc2ccc(C(=O)NCCOc3cc4c(N)nccc4cc3CC(=O)C(=O)O)cc2)CC1 [Compound of Ex. 26, 3-[1-amino-7-(2-(4-(1-acetimidoyl-4-piperidyloxy)benzoylamino)ethoxy)isoquinoline-6-yl]-2-oxopropionic acid bistrifluoroacetate] | 0.2 | > 501 | 6.2
4 | Nc1nccc2cc(CC(=O)C(=O)O)c(OCCNC(=O)C3CCN(c4ccncc4)CC3)cc12 [Compound of Ex. 27, 3-[1-amino-7-(2-(4-(1-(4-pyridyl)-4-piperidine)carbonylamino)ethoxy)isoquinoline-6-yl]-2-oxopropionic acid bistrifluoroacetate] | 0.251 | > 501 | 6.2

Continued, in another order:

Row | IC50 [1] [µM] | IC50 (human thrombin) [µM] | Compound | Blood anticoagulating activity (PT2) [2]
5 | 0.251 | 251 | Nc1nccc2ccc(OCCNC(=O)c3ccc(C(=O)N4CCCC4)cc3)cc12 [Compound of Ex. 2, N-[2-(1-aminoisoquinoline-7-yloxy)ethyl]-4-(1-pyrrolidinecarbonyl)benzamide mono-trifluoroacetate] | 5.5
6 | 0.0794 | > 1000 | Nc1nccc2ccc(OC[C@@H](CCC(=O)O)NC(=O)c3ccc(C(=O)N4CCCC4)cc3)cc12 [Compound of Ex. 16, (4R)-5-(1-aminoisoquinoline-7-yloxy)-4-[4-(1-pyrrolidinecarbonyl)benzoylamino]pentanoic acid mono-trifluoroacetate] | 5.6
7 | 0.251 | 316 | CCOC(=O)CC[C@H](COc1ccc2ccnc(N)c2c1)NC(=O)c1ccc(C(=O)N2CCCC2)cc1 [Compound of Ex. 17, ethyl (4R)-5-(1-aminoisoquinoline-7-yloxy)-4-[4-(1-pyrrolidinecarbonyl)benzoylamino]pentanoate mono-trifluoroacetate] | –
8 | 0.398 | 794 | N=C(N)Nc1ccc(C(=O)N[C@H](CCC(=O)O)COc2ccc3ccnc(N)c3c2)cc1 [Compound of Ex. 25, (4R)-5-(1-aminoisoquinoline-7-yloxy)-4-[4-(guanidino)benzoylamino]pentanoic acid mono-trifluoroacetate] | –
